In patent US20200022370A1, “MICROBIOCIDAL OXADIAZOLE DERIVATIVES” (SYNGENTA PARTICIPATIONS AG, priority 2016, published 2020):

Columns and labels:
[1] = test system: Puccinia recondita f. Sp. Tritici; test: Puccinia recondita f. sp. tritici / wheat / leaf disc preventative (brown rust); type: in vivo; conditions: foliar, 200 ppm in the applied formulation, wheat leaf segments cv. Kanzler, inoculated 1 day after application, vs untreated, 7 to 9 days after application, read-out: disease control
How it was run: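 Preventative leaf-segment test on wheat cv. Kanzler: formulated compound diluted in water was sprayed onto segments on agar, with spore inoculation 1 day later. Incubated at 19° C, 75% rh, 12 h light/12 h dark; percent disease control versus untreated scored 7 to 9 days after application.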

[2] = test system: Puccinia recondita f. Sp. Tritici; test: Puccinia recondita f. sp. tritici / wheat / leaf disc curative (brown rust); type: in vivo; conditions: foliar, 200 ppm in the applied formulation, wheat leaf segments cv. Kanzler, compound applied 1 day after inoculation, vs untreated, 6 to 8 days after application, read-out: disease control
Protocol: (§1) Leaf disks or leaf segments of various plant species are cut from plants grown in a greenhouse. The cut leaf disks or segments are placed in multiwell plates (24-well format) onto water agar. The leaf disks are sprayed with a test solution before (preventative) or after (curative) inoculation. Compounds to be tested are prepared as DMSO solutions (max. 10 mg/ml) which are diluted to the appropriate concentration with 0.025% Tween20 just before spraying. The inoculated leaf disks or segments are incubated under defined conditions (temperature, relative humidity, light, etc.) according to the respective test system. A single evaluation of disease level is carried out 3 to 14 days after inoculation, depending on the pathosystem. Percent disease control relative to the untreated check leaf disks or segments is then calculated.
Example 2: Fungicidal Activity Against Puccinia recondita f. sp. tritici/Wheat/Leaf Disc Curative (Brown Rust)
Wheat leaf segments cv. Kanzler are placed on agar in multiwell plates (24-well format). The leaf segments are then inoculated with a spore suspension of the fungus. Plates were stored in darkness at 19° C. and 75% relative humidity. The Formulated test compound diluted in water was applied 1 day after inoculation. The leaf segments were incubated at 19° C. and 75% relative humidity under a light regime of 12 hours light/12 hours darkness in a climate cabinet and the activity of a compound was assessed as percent disease control compared to untreated when an appropriate level of disease damage appears in untreated check leaf segments (6 to 8 days after application).
(§2) The following compounds at 200 ppm in the applied Formulation give at least 80% disease control in this test when compared to untreated control leaf disks under the same conditions, which show extensive disease development.

Phakopsora pachyrhizi = Phakopsora pachyrhizi / soybean / leaf disc preventative (Asian soybean rust); type: in vivo; conditions: foliar, 200 ppm in the applied formulation, soybean leaf disks, inoculated one day after application, vs untreated, 12 to 14 days after application, read-out: disease control
Protocol: as §1
Example 3: Fungicidal Activity Against Phakopsora pachyrhizi/Soybean/Leaf Disc Preventative (Asian Soybean Rust)
Soybean leaf disks are placed on water agar in multiwell plates (24-well format) and sprayed with the Formulated test compound diluted in water. One day after application leaf discs are inoculated by spraying a spore suspension on the lower leaf surface. After an incubation period in a climate cabinet of 24-36 hours in darkness at 20° C. and 75% rh leaf disc are kept at 20° C. with 12 h light/day and 75% rh. The activity of a compound is assessed as percent disease control compared to untreated when an appropriate level of disease damage appears in untreated check leaf disks (12 to 14 days after application).
as §2

[3] = test system: Glomerella lacenarium (Colletotrichum lacenarium); test: Glomerella lacenarium (Colletotrichum lacenarium) liquid culture / cucumber / preventative (anthracnose); type: cell-based; conditions: 20 ppm, liquid culture in PDB, 24° C., inhibition of growth measured photometrically 3 to 4 days after application, vs untreated, read-out: disease control
How it was run: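 Cryopreserved conidia in potato dextrose broth were added to test compound in a 96-well microtiter plate and incubated at 24 °C. Growth inhibition read photometrically 3–4 days after application, as percent activity versus untreated check.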

O=C(CSc1ccccc1)Nc1ccc(-c2noc(C(F)(F)F)n2)nc1 [Compound 1.55, 2-phenylsulfanyl-N-[6-[5-(trifluoromethyl)-1,2,4-oxadiazol-3-yl]-3-pyridyl]acetamide]
≥ 80%: pest or weed control at 200 ppm [1] | pest or weed control at 200 ppm [2] | pest or weed control at 200 ppm (Phakopsora pachyrhizi) | inhibition of growth at 20 ppm [3]

COC(=O)C(C)(C)CC(=O)Nc1ccc(-c2noc(C(F)(F)F)n2)cc1 [Compound 1.73, methyl 2,2-dimethyl-4-oxo-4-[4-[5-(trifluoromethyl)-1,2,4-oxadiazol-3-yl]anilino]butanoate]
≥ 80%: pest or weed control at 200 ppm [1] | pest or weed control at 200 ppm [2] | pest or weed control at 200 ppm (Phakopsora pachyrhizi) | inhibition of growth at 20 ppm [3]

CC(C)C(=O)Nc1ccc(-c2noc(C(F)(F)F)n2)cc1 [Compound 1.74, 2-methyl-N-[4-[5-(trifluoromethyl)-1,2,4-oxadiazol-3-yl]phenyl] propanamide]
≥ 80%: pest or weed control at 200 ppm [1] | pest or weed control at 200 ppm [2] | pest or weed control at 200 ppm (Phakopsora pachyrhizi) | inhibition of growth at 20 ppm [3]

CCC(C)C(=O)Nc1ccc(-c2noc(C(F)(F)F)n2)cc1 (stereo not drawn) [Compound 1.99, 2-methyl-N-[4-[5-(trifluoromethyl)-1,2,4-oxadiazol-3-yl]phenyl]butanamide]
≥ 80%: pest or weed control at 200 ppm [1] | pest or weed control at 200 ppm [2] | pest or weed control at 200 ppm (Phakopsora pachyrhizi) | inhibition of growth at 20 ppm [3]

CC1(C(=O)Nc2ccc(-c3noc(C(F)(F)F)n3)cc2)COC1 [Compound 1.102, 3-methyl-N-[4-[5-(trifluoromethyl)-1,2,4-oxadiazol-3-yl]phenyl]oxetane-3-carboxamide]
≥ 80%: pest or weed control at 200 ppm [1] | pest or weed control at 200 ppm [2] | pest or weed control at 200 ppm (Phakopsora pachyrhizi) | inhibition of growth at 20 ppm [3]

O=C(Nc1ccc(-c2noc(C(F)(F)F)n2)cc1)C1CC1F (stereo not drawn) [Compound 1.111, 2-fluoro-N-[4-[5-(trifluoromethyl)-1,2,4-oxadiazol-3-yl]phenyl]cyclo-propanecarboxamide]
≥ 80%: pest or weed control at 200 ppm [1] | pest or weed control at 200 ppm [2] | pest or weed control at 200 ppm (Phakopsora pachyrhizi) | inhibition of growth at 20 ppm [3]

COC(C)C(=O)Nc1ccc(-c2noc(C(F)(F)F)n2)cc1 (stereo not drawn) [Compound 1.112, 2-methoxy-N-[4-[5-(trifluoromethyl)-1,2,4-oxadiazol-3-yl]phenyl] propanamide]
≥ 80%: pest or weed control at 200 ppm [1] | pest or weed control at 200 ppm [2] | pest or weed control at 200 ppm (Phakopsora pachyrhizi) | inhibition of growth at 20 ppm [3]

O=C(Nc1ccc(-c2noc(C(F)(F)F)n2)cc1)C1(F)CC1 [Compound 1.123, 1-fluoro-N-[4-[5-(trifluoromethyl)-1,2,4-oxadiazol-3-yl]phenyl]cyclo-propanecarboxamide]
≥ 80%: pest or weed control at 200 ppm [1] | pest or weed control at 200 ppm [2] | pest or weed control at 200 ppm (Phakopsora pachyrhizi) | inhibition of growth at 20 ppm [3]

CN(C(=O)C1CC1)c1ccc(-c2noc(C(F)(F)F)n2)cc1 [Compound 1.128, N-methyl-N-[4-[5-(trifluoromethyl)-1,2,4-oxadiazol-3-yl]phenyl]cyclo-propanecarboxamide]
≥ 80%: pest or weed control at 200 ppm [1] | pest or weed control at 200 ppm [2] | pest or weed control at 200 ppm (Phakopsora pachyrhizi) | inhibition of growth at 20 ppm [3]

CN(C(=O)C1CCOC1)c1ccc(-c2noc(C(F)(F)F)n2)cc1 (stereo not drawn) [Compound 1.135, N-methyl-N-[4-[5-(trifluoromethyl)-1,2,4-oxadiazol-3-yl]phenyl] tetrahydrofuran-3-carboxamide]
≥ 80%: pest or weed control at 200 ppm [2] | pest or weed control at 200 ppm (Phakopsora pachyrhizi) | inhibition of growth at 20 ppm [3]

COCCC(=O)N(C)c1ccc(-c2noc(C(F)(F)F)n2)cc1 [Compound 1.136, 3-methoxy-N-methyl-N-[4-[5-(trifluoromethyl)-1,2,4-oxadiazol-3-yl]phenyl] propanamide]
≥ 80%: pest or weed control at 200 ppm [2] | pest or weed control at 200 ppm (Phakopsora pachyrhizi) | inhibition of growth at 20 ppm [3]

CN(C(=O)C1(C)COC1)c1ccc(-c2noc(C(F)(F)F)n2)cc1 [Compound 1.139, N,3-dimethyl-N-[4-[5-(trifluoromethyl)-1,2,4-oxadiazol-3-yl]phenyl]oxetane-3-carboxamide]
≥ 80%: pest or weed control at 200 ppm [1] | pest or weed control at 200 ppm [2] | pest or weed control at 200 ppm (Phakopsora pachyrhizi) | inhibition of growth at 20 ppm [3]

COCCCC(=O)N(C)c1ccc(-c2noc(C(F)(F)F)n2)cc1 [Compound 1.140, 4-methoxy-N-methyl-N-[4-[5-(trifluoromethyl)-1,2,4-oxadiazol-3-yl]phenyl]butanamide]
≥ 80%: pest or weed control at 200 ppm [2] | pest or weed control at 200 ppm (Phakopsora pachyrhizi) | inhibition of growth at 20 ppm [3]

CN(C(=O)C1CCCO1)c1ccc(-c2noc(C(F)(F)F)n2)cc1 (stereo not drawn) [Compound 1.141, N-methyl-N-[4-[5-(trifluoromethyl)-1,2,4-oxadiazol-3-yl]phenyl] tetrahydrofuran-2-carboxamide]
≥ 80%: pest or weed control at 200 ppm [1] | pest or weed control at 200 ppm [2] | pest or weed control at 200 ppm (Phakopsora pachyrhizi) | inhibition of growth at 20 ppm [3]

CN(C(=O)C1(C#N)CC1)c1ccc(-c2noc(C(F)(F)F)n2)cc1 [Compound 1.142, 1-cyano-N-methyl-N-[4-[5-(trifluoromethyl)-1,2,4-oxadiazol-3-yl]phenyl]cyclo-propanecarboxamide]
≥ 80%: pest or weed control at 200 ppm [1] | pest or weed control at 200 ppm [2] | pest or weed control at 200 ppm (Phakopsora pachyrhizi) | inhibition of growth at 20 ppm [3]

COC(C)C(=O)N(C)c1ccc(-c2noc(C(F)(F)F)n2)cc1 (stereo not drawn) [Compound 1.143, 2-methoxy-N-methyl-N-[4-[5-(trifluoromethyl)-1,2,4-oxadiazol-3-yl]phenyl] propanamide]
≥ 80%: pest or weed control at 200 ppm [1] | pest or weed control at 200 ppm [2] | pest or weed control at 200 ppm (Phakopsora pachyrhizi) | inhibition of growth at 20 ppm [3]

C#CCCC(=O)Nc1ccc(-c2noc(C(F)(F)F)n2)cc1 [Compound 2.4, N-[4-[5-(trifluoromethyl)-1,2,4-oxadiazol-3-yl]phenyi]pent-4-ynamide]
≥ 80%: pest or weed control at 200 ppm [1] | pest or weed control at 200 ppm [2] | pest or weed control at 200 ppm (Phakopsora pachyrhizi) | inhibition of growth at 20 ppm [3]

CCCC(=O)Nc1ccc(-c2noc(C(F)(F)F)n2)cc1 [Compound 2.5, N-[4-[5-(trifluoromethyl)-1,2,4-oxadiazol-3-yl]phenyl] butanamide]
≥ 80%: pest or weed control at 200 ppm [1] | pest or weed control at 200 ppm [2] | pest or weed control at 200 ppm (Phakopsora pachyrhizi) | inhibition of growth at 20 ppm [3]

O=C(Nc1ccc(-c2noc(C(F)(F)F)n2)cc1)C1CC=CC1 [Compound 2.7, N-[4-[5-(trifluoromethyl)-1,2,4-oxadiazol-3-yl]phenyl]cyclopent-3-ene-1-carboxamide]
≥ 80%: pest or weed control at 200 ppm [1] | pest or weed control at 200 ppm [2] | pest or weed control at 200 ppm (Phakopsora pachyrhizi) | inhibition of growth at 20 ppm [3]

N#CCC(=O)Nc1ccc(-c2noc(C(F)(F)F)n2)cc1 [Compound 2.13, 2-cyano-N-[4-[5-(trifluoromethyl)-1,2,4-oxadiazol-3-yl]phenyl] acetamide]
≥ 80%: pest or weed control at 200 ppm [1] | pest or weed control at 200 ppm [2] | pest or weed control at 200 ppm (Phakopsora pachyrhizi) | inhibition of growth at 20 ppm [3]

COCCCC(=O)Nc1ccc(-c2noc(C(F)(F)F)n2)cc1 [Compound 2.16, 4-methoxy-N-[4-[5-(trifluoromethyl)-1,2,4-oxadiazol-3-yl]phenyl] butanamide]
≥ 80%: pest or weed control at 200 ppm [1] | pest or weed control at 200 ppm [2] | pest or weed control at 200 ppm (Phakopsora pachyrhizi) | inhibition of growth at 20 ppm [3]

CON(C(=O)C1CC1)c1ccc(-c2noc(C(F)(F)F)n2)cc1 [Compound 2.27, N-methoxy-N-[4-[5-(trifluoromethyl)-1,2,4-oxadiazol-3-yl]phenyl] cyclopropane-carboxamide]
≥ 80%: pest or weed control at 200 ppm [2] | pest or weed control at 200 ppm (Phakopsora pachyrhizi) | inhibition of growth at 20 ppm [3]
